{"source": "patent US20160074643A1", "about": "“SKIN CARE PRODUCTS” (The Procter & Gamble Company, priority 2014, published 2016)", "assay": "Vitamin B3 in vivo skin penetration study #2: Tape Stripping Method, magnetic vs non-magnetic applicator", "set-up": "species or system human; amount of niacinamide recovered from tape strip / amount of niacinamide recovered from tape strip, Avg / amount of niacinamide recovered, Sum 2-10 / amount of niacinamide recovered, Sum 2-10, Avg / amount of niacinamide recovered, Sum 6-10 / amount of niacinamide recovered, Sum 6-10, Avg: unit not given here", "details": "for amount of niacinamide recovered from tape strip, Avg / amount of niacinamide recovered, Sum 2-10, Avg / amount of niacinamide recovered, Sum 6-10, Avg: average across all 10 test sites; for amount of niacinamide recovered, Sum 2-10, Avg / amount of niacinamide recovered, Sum 2-10: sum of strips 2-10; for amount of niacinamide recovered, Sum 6-10, Avg / amount of niacinamide recovered, Sum 6-10: sum of strips 6-10", "experimental": "This method provides a suitable means of measuring the amount of skin care active present in skin, and comparing active versus passive application of the skin care active. Two identical circular areas of 7.9 cm^2 were marked on the volar forearms of volunteers. A measured dose (approximately 9 mg) of the skin care formulation (ingredients shown in Table 1) was applied to the delineated areas using a screw actuated syringe. Active application was carried out using purpose made applicators having a metallic aluminium skin contact surface behind which was the magnetic array. The cream was spread evenly across the entire delineated region using the applicator in a sweeping motion with a fixed speed of approximately 3.5 cm/s to mimic normal finger application. Passive application was performed using the tip of a finger in a sweeping motion identical to that of application using the applicator. The application period was 30 seconds during which time visual inspection was used to ensure even distribution and absorption of the formulation by skin. The application area was then left uncovered for a further 30 minutes to ensure complete absorption. The application area was then wiped thoroughly to remove any surface material, followed by carrying out tape stripping.\nThe Tape Stripping Method can be carried out using commercial pre-cut 22.1 mm tape stripping adhesive discs (D-SQUAME brand tape strips from Cuderm Corporation or equivalent) with an adhesive area of 3.8 cm^2. A 22.1 mm diameter circular region was marked at the center of the application area. A tape stripping adhesive disc was placed over the marked area and even pressure applied using a neoprene roller, rolled ten times over the surface. The adhesive disc was removed from the skin surface in a single pulling motion using manual tweezers. To ensure even removal of the stratum corneum, subsequent discs were removed in a north, south, east and west orientation. Each adhesive disc was non-destructively analyzed for relative protein content using the SquameScan™ 850 instrument (Heiland Electronics Wetzlar Germany). The adhesive disc was then immediately placed into a glass vial containing extraction solvent in preparation for subsequent analysis. Solvent extractions are conducted on each tape strip using conventional extraction methods, which are well known to those of ordinary skill in the art, and measuring the amount of niacinamide present in the extract, for example, by high performance liquid chromatography (“HPLC”) and/or mass spectrometry.\nIn this example, 5 test subjects (A to E in Tables 13 and 14) were selected. […] The applicator used for active application included Array #8 from Table 2. The applicator used for passive application was the same as the one used for active application except without the magnetic array. Each forearm included an active application test site and a passive application site for a total of 10 active test sites and 10 passive sites. The application time was 30 seconds with a speed of motion of approximately 3 cm per second, equating to a gentle rubbing action. Application of the composition was followed by a 30 minute absorption period. […] The level of niacinamide recovered from each tape strip was measured using HPLC.\nThe average value across all test sites is shown in the second to last cell of the row. The standard error of the mean (SEM) is shown in the last column of Tables 13 and 14. The SEM is calculated by dividing the standard deviation by the square root of the number of test sites. The active versus passive application results from Tables 13 and 14 are graphically illustrated in FIG. 7.\nThe enhancement values shown in Table 15 are calculated by dividing the active value from Table 14 by the passive value from Table 13. The average shown in the last column of Table 15 is calculated by averaging the enhancement values of all the test sites. […]", "key": {"[1]": {"details": "active value divided by passive value, average of all test sites"}, "[2]": {"details": "active value divided by passive value, individual test sites, Subjects A-E, Site 1/2"}, "[3]": {"details": "Active Application (magnetic applicator, Array #8)"}, "[4]": {"details": "Active Application (magnetic applicator, Array #8), individual test sites, Subjects A-E, Site 1/2"}, "[5]": {"details": "Passive Application (non-magnetic applicator)"}, "[6]": {"details": "Passive Application (non-magnetic applicator), individual test sites, Subjects A-E, Site 1/2"}}, "note": "“And” between values parts separate entries of the source, which are not always exact repeats. Equal entries are not always repeated."}
{"smiles": "NC(=O)c1cccnc1", "note": "[niacinamide]", "values": [{"measurement": "Enhancement value Strips 2-10, Avg", "setting": "[1]", "value": 1.47}, {"measurement": "Enhancement value Strips 6-10, Avg", "setting": "[1]", "value": 1.46}, {"measurement": "Enhancement value Strips 2-10", "setting": "[2]", "value": "1.63 and 1.35 and 1.77 and 1.47 and 1.51 and 1.26 and 1.19 and 1.39 and 1.59 and 1.54"}, {"measurement": "Enhancement value Strips 6-10", "setting": "[2]", "value": "1.53 (2×) and 1.34 and 1.71 and 1.41 and 1.83 and 1.19 and 1.21 and 1.39 and 1.43"}, {"measurement": "niacinamide delivered into the skin, active compared to passive application", "setting": "magnetic applicator vs non-magnetic applicator", "value": "about 1.5 ×"}, {"measurement": "amount of niacinamide recovered from tape strip, Avg", "setting": "strip 1, Active Application (magnetic applicator, Array #8)", "value": 4.43}, {"measurement": "amount of niacinamide recovered from tape strip, Avg", "setting": "strip 1, Passive Application (non-magnetic applicator)", "value": 3.87}, {"measurement": "amount of niacinamide recovered from tape strip", "setting": "strip 1, Passive Application (non-magnetic applicator), individual test sites, Subjects A-E, Site 1/2", "value": "2.62 and 3.31 and 3.07 and 2.86 and 3.16 and 5.69 and 4.14 and 6.28 and 0.54 and 7.00"}, {"measurement": "amount of niacinamide recovered from tape strip, Avg", "setting": "strip 2, Active Application (magnetic applicator, Array #8)", "value": 6.10}, {"measurement": "amount of niacinamide recovered from tape strip, Avg", "setting": "strip 2, Passive Application (non-magnetic applicator)", "value": 4.12}, {"measurement": "amount of niacinamide recovered from tape strip", "setting": "strip 2, Passive Application (non-magnetic applicator), individual test sites, Subjects A-E, Site 1/2", "value": "2.66 and 3.81 and 2.71 and 2.52 and 4.24 and 7.80 and 5.47 and 7.28 and 1.84 and 2.88"}, {"measurement": "amount of niacinamide recovered from tape strip, Avg", "setting": "strip 3, Active Application (magnetic applicator, Array #8)", "value": 8.37}, {"measurement": "amount of niacinamide recovered from tape strip, Avg", "setting": "strip 3, Passive Application (non-magnetic applicator)", "value": 5.69}, {"measurement": "amount of niacinamide recovered from tape strip", "setting": "strip 3, Passive Application (non-magnetic applicator), individual test sites, Subjects A-E, Site 1/2", "value": "3.51 and 5.43 and 6.33 and 3.77 and 6.64 and 7.64 and 6.14 and 9.62 and 2.43 and 5.36"}, {"measurement": "amount of niacinamide recovered from tape strip, Avg", "setting": "strip 4, Active Application (magnetic applicator, Array #8)", "value": 8.25}, {"measurement": "amount of niacinamide recovered from tape strip, Avg", "setting": "strip 4, Passive Application (non-magnetic applicator)", "value": 6.18}, {"measurement": "amount of niacinamide recovered from tape strip", "setting": "strip 4, Passive Application (non-magnetic applicator), individual test sites, Subjects A-E, Site 1/2", "value": "4.22 and 2.79 and 8.53 and 4.24 and 7.48 and 7.15 and 5.87 and 11.29 and 1.29 and 8.91"}, {"measurement": "amount of niacinamide recovered from tape strip, Avg", "setting": "strip 5, Active Application (magnetic applicator, Array #8)", "value": 7.68}, {"measurement": "amount of niacinamide recovered from tape strip, Avg", "setting": "strip 5, Passive Application (non-magnetic applicator)", "value": 4.91}, {"measurement": "amount of niacinamide recovered from tape strip", "setting": "strip 5, Passive Application (non-magnetic applicator), individual test sites, Subjects A-E, Site 1/2", "value": "4.57 and 3.79 and 6.08 and 2.74 and 6.35 and 6.21 and 5.61 and 7.10 and 2.27 and 4.36"}, {"measurement": "amount of niacinamide recovered from tape strip, Avg", "setting": "strip 6, Active Application (magnetic applicator, Array #8)", "value": 7.02}, {"measurement": "amount of niacinamide recovered from tape strip, Avg", "setting": "strip 6, Passive Application (non-magnetic applicator)", "value": 4.72}, {"measurement": "amount of niacinamide recovered from tape strip", "setting": "strip 6, Passive Application (non-magnetic applicator), individual test sites, Subjects A-E, Site 1/2", "value": "4.37 and 3.42 and 6.69 and 1.97 and 5.29 and 7.95 and 4.56 and 6.46 and 2.62 and 3.85"}, {"measurement": "amount of niacinamide recovered from tape strip, Avg", "setting": "strip 7, Active Application (magnetic applicator, Array #8)", "value": 5.52}, {"measurement": "amount of niacinamide recovered from tape strip, Avg", "setting": "strip 7, Passive Application (non-magnetic applicator)", "value": 3.66}, {"measurement": "amount of niacinamide recovered from tape strip", "setting": "strip 7, Passive Application (non-magnetic applicator), individual test sites, Subjects A-E, Site 1/2", "value": "3.57 and 3.37 and 4.35 and 1.87 and 3.82 and 6.89 and 5.41 and 0.19 and 2.67 and 4.47"}, {"measurement": "amount of niacinamide recovered from tape strip, Avg", "setting": "strip 8, Active Application (magnetic applicator, Array #8)", "value": 4.63}, {"measurement": "amount of niacinamide recovered from tape strip, Avg", "setting": "strip 8, Passive Application (non-magnetic applicator)", "value": 3.43}, {"measurement": "amount of niacinamide recovered from tape strip", "setting": "strip 8, Passive Application (non-magnetic applicator), individual test sites, Subjects A-E, Site 1/2", "value": "2.65 and 2.92 and 2.85 and 1.56 and 4.65 and 5.34 and 2.94 and 5.75 and 1.88 and 3.71"}, {"measurement": "amount of niacinamide recovered from tape strip, Avg", "setting": "strip 9, Active Application (magnetic applicator, Array #8)", "value": 5.11}, {"measurement": "amount of niacinamide recovered from tape strip, Avg", "setting": "strip 9, Passive Application (non-magnetic applicator)", "value": 3.59}, {"measurement": "amount of niacinamide recovered from tape strip", "setting": "strip 9, Passive Application (non-magnetic applicator), individual test sites, Subjects A-E, Site 1/2", "value": "2.95 and 2.37 and 2.24 and 2.00 and 3.78 and 6.70 and 2.79 and 7.20 and 2.15 and 3.70"}, {"measurement": "amount of niacinamide recovered from tape strip, Avg", "setting": "strip 10, Active Application (magnetic applicator, Array #8)", "value": 4.48}, {"measurement": "amount of niacinamide recovered from tape strip, Avg", "setting": "strip 10, Passive Application (non-magnetic applicator)", "value": 3.20}, {"measurement": "amount of niacinamide recovered from tape strip", "setting": "strip 10, Passive Application (non-magnetic applicator), individual test sites, Subjects A-E, Site 1/2", "value": "1.58 and 2.24 and 1.54 and 1.31 and 4.53 and 5.34 and 2.42 and 6.19 and 0.71 and 6.10"}, {"measurement": "amount of niacinamide recovered, Sum 2-10, Avg", "setting": "[3]", "value": 57.16}, {"measurement": "amount of niacinamide recovered, Sum 2-10", "setting": "[4]", "value": "49.17 and 40.65 and 72.98 and 32.23 and 70.46 and 76.77 and 48.95 and 85.20 and 28.48 and 66.67"}, {"measurement": "amount of niacinamide recovered, Sum 2-10, Avg", "setting": "[5]", "value": 39.48}, {"measurement": "amount of niacinamide recovered, Sum 2-10", "setting": "[6]", "value": "30.09 and 30.15 and 41.32 and 21.97 and 46.79 and 61.02 and 41.20 and 61.08 and 17.87 and 43.34"}, {"measurement": "amount of niacinamide recovered, Sum 6-10, Avg", "setting": "[3]", "value": 26.76}, {"measurement": "amount of niacinamide recovered, Sum 6-10", "setting": "[4]", "value": "23.12 and 19.16 and 30.14 and 12.25 and 40.38 and 38.27 and 21.85 and 35.82 and 15.32 and 31.26"}, {"measurement": "amount of niacinamide recovered, Sum 6-10, Avg", "setting": "[5]", "value": 18.59}, {"measurement": "amount of niacinamide recovered, Sum 6-10", "setting": "[6]", "value": "15.13 and 14.32 and 17.67 and 8.70 and 22.07 and 32.21 and 18.11 and 25.79 and 10.04 and 21.84"}]}
